Data set [1] is described as follows: H+/Na+ transport assay of bead-derived peptides (one-point).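 Further: relative to parent gramicidin A activity set to 1.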 Type of data set: biochemical. On the set-up: key: relative activity; mean of two control wells = 1.00. The following applies: bead-derived peptide solution, EYPC/EYPG LUVs. The essentials:
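Miniaturized 96-well format. LUVs with entrapped pyranine (1.0 mM) were exposed to peptide for 30 min at RT. Intensities were expressed relative to full lysis by Triton X-100 and no treatment, with control-well mean = 1.00.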

In data set [2] the test system is Streptococcus pyogenes SSI-9. Kind of data set: Antibacterial activity assay of bead-derived peptides (three concentrations). It counts as cell-based. The settings on record: S. pyogenes, bead-derived peptide solution, three concentrations. More on the design: key: +++: inhibition by the 640-fold diluted peptide solution; ++: inhibition by the 160-fold diluted solution; +: inhibition by the 40-fold diluted solution; -: no inhibition. The essentials:
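Growth inhibition scored visually as precipitated bacteria after 37 °C, 18 h incubation. Streptococcus pyogenes SSI-9 inoculum of 2 × 10^5 CFU in Ca2+/Mg2+-adjusted Mueller Hinton broth plus 5% laked horse blood; peptides tested at three levels: stock, 4-fold and 16-fold DMSO dilutions.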

The conditions of data set [3]: cell viability/%. The method in brief:
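Peptide stocks diluted 250× in growth medium; P388 cells 1 × 10^4 cells/mL final; 37 °C, 5% CO2, 92 h. WST-1 + 1-methoxy PMS, 4 h, A415. Output: % viability.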

Where a SMILES comes first, the peptide text is derived from it. [ ]: non-standard residue; d: D form. The star is where a group is joined. NHCH2CH2OH = OCCN*; For = O=C*

Broadly, the viability is the share of living cells, or the viability signal relative to a control.

Turning to `CNC(=O)C[C@@H](NC(=O)[C@@H](NC(=O)[C@@H](CC(C)C)NC(=O)[C@H](C)NC(=O)[C@H](NC(=O)[C@H](C)NC(=O)CNC(=O)[C@@H](NC=O)C(C)C)C(C)C)C(C)C)C(=O)N[C@@H](Cc1c[nH]c2ccccc12)C(=O)N[C@@H](C(=O)N[C@@H](Cc1c[nH]c2ccccc12)C(=O)N[C@@H](C(=O)N[C@@H](Cc1c[nH]c2ccccc12)C(=O)N[C@H](CC(C)C)C(=O)N[C@@H](Cc1c[nH]c2ccccc12)C(=O)NCCO)C(C)C)C(C)C` [compound 5991] (For-VGA[dV]A[dL]V[dD](NHMe)W[dV]W[dV]W[dL]W-NHCH2CH2OH), the “H+/Na+ transport activity normalized against the value of 1 (1.00)” value (“H+/Na+ transport activity normalized” below) in data set [1] was 1.00. Further, in data set [2], the antibacterial activity entry is “-”. The compound also displayed a viability in data set [3] of 94.7%.
For `CC(C)C[C@@H](NC(=O)[C@H](C)NC(=O)[C@H](NC(=O)[C@H](C)NC(=O)CNC(=O)[C@@H](NC=O)C(C)C)C(C)C)C(=O)N[C@H](C(=O)N[C@@H](C(=O)N[C@@H](Cc1c[nH]c2ccccc12)C(=O)N[C@H](CC(C)C)C(=O)N[C@@H](Cc1c[nH]c2ccccc12)C(=O)N[C@H](CC(C)C)C(=O)N[C@@H](Cc1c[nH]c2ccccc12)C(=O)N[C@@H](C(=O)N[C@@H](Cc1c[nH]c2ccccc12)C(=O)NCCO)C(C)C)[C@H](C)O)C(C)C` [compound 6160] (For-VGA[dV]A[dL]V[dT]W[dL]W[dL]W[dV]W-NHCH2CH2OH) the same measures were 1.07, “+” and 70.3%.
For `CNC(=O)C[C@@H](NC(=O)[C@H](Cc1c[nH]c2ccccc12)NC(=O)[C@H](NC(=O)[C@H](Cc1c[nH]c2ccccc12)NC(=O)[C@H](NC(=O)[C@H](Cc1c[nH]c2ccccc12)NC(=O)[C@@H](CC(C)C)NC(=O)[C@@H](NC(=O)[C@@H](CC(C)C)NC(=O)[C@H](C)NC(=O)[C@@H](CC(C)C)NC(=O)[C@H](C)NC(=O)CNC(=O)[C@@H](NC=O)C(C)C)C(C)C)C(C)C)C(C)C)C(=O)N[C@@H](Cc1c[nH]c2ccccc12)C(=O)NCCO` [compound 6265] (For-VGA[dL]A[dL]V[dL]W[dV]W[dV]W[dD](NHMe)W-NHCH2CH2OH) the same measures were 1.03, “-” and 79.9%.
For `CC(C)C[C@@H](NC(=O)[C@H](C)NC(=O)CNC(=O)[C@@H](NC=O)C(C)C)C(=O)N[C@@H](C)C(=O)N[C@@H](C(=O)N[C@H](C(=O)N[C@@H](C(=O)N[C@@H](Cc1c[nH]c2ccccc12)C(=O)N[C@H](CC(C)C)C(=O)N[C@@H](Cc1c[nH]c2ccccc12)C(=O)N[C@H](CC(C)C)C(=O)N[C@@H](Cc1c[nH]c2ccccc12)C(=O)N[C@@H](C(=O)N[C@@H](Cc1c[nH]c2ccccc12)C(=O)NCCO)C(C)C)C(C)C)C(C)C)C(C)C` [compound 6345] (For-VGA[dL]A[dV]V[dV]W[dL]W[dL]W[dV]W-NHCH2CH2OH) the same measures were 1.13, “++” and 57.3%.
For the compound `CNC(=O)C[C@@H](NC(=O)[C@@H](NC(=O)[C@@H](CC(C)C)NC(=O)[C@H](C)NC(=O)[C@H](NC(=O)[C@H](C)NC(=O)CNC(=O)[C@@H](NC=O)C(C)C)C(C)C)C(C)C)C(=O)N[C@@H](Cc1c[nH]c2ccccc12)C(=O)N[C@H](CC(C)C)C(=O)N[C@@H](Cc1c[nH]c2ccccc12)C(=O)N[C@@H](C(=O)N[C@@H](Cc1c[nH]c2ccccc12)C(=O)N[C@H](CC(C)C)C(=O)N[C@@H](Cc1c[nH]c2ccccc12)C(=O)NCCO)C(C)C` [compound 6541] (For-VGA[dV]A[dL]V[dD](NHMe)W[dL]W[dV]W[dL]W-NHCH2CH2OH), the “H+/Na+ transport activity normalized” value in data set [1] was 1.14. Further, the antibacterial activity result in data set [2] was “-”. This compound also came in with a viability in data set [3] of 100%.
For `CC(C)C[C@@H](NC(=O)[C@H](C)NC(=O)CNC(=O)[C@@H](NC=O)C(C)C)C(=O)N[C@@H](C)C(=O)N[C@@H](C(=O)N[C@H](C(=O)N[C@@H](C(=O)N[C@@H](Cc1c[nH]c2ccccc12)C(=O)N[C@H](CC(C)C)C(=O)N[C@@H](Cc1c[nH]c2ccccc12)C(=O)N[C@@H](C(=O)N[C@@H](Cc1c[nH]c2ccccc12)C(=O)N[C@@H](C(=O)N[C@@H](Cc1c[nH]c2ccccc12)C(=O)NCCO)C(C)C)C(C)C)C(C)C)C(C)C)[C@H](C)O` [compound 6549] (For-VGA[dL]A[dT]V[dV]W[dL]W[dV]W[dV]W-NHCH2CH2OH) the same measures were 1.07, “-” and 100%.
As for `CC(C)C[C@@H](NC(=O)[C@H](Cc1c[nH]c2ccccc12)NC(=O)[C@H](NC(=O)[C@H](Cc1c[nH]c2ccccc12)NC(=O)[C@H](NC(=O)[C@H](Cc1c[nH]c2ccccc12)NC(=O)[C@H](NC(=O)[C@@H](NC(=O)[C@H](NC(=O)[C@H](C)NC(=O)[C@H](NC(=O)[C@H](C)NC(=O)CNC(=O)[C@@H](NC=O)C(C)C)[C@H](C)O)C(C)C)C(C)C)C(C)C)C(C)C)C(C)C)C(=O)N[C@@H](Cc1c[nH]c2ccccc12)C(=O)NCCO` [compound 6606] (For-VGA[dT]A[dV]V[dV]W[dV]W[dV]W[dL]W-NHCH2CH2OH), in data set [1], the “H+/Na+ transport activity normalized” value is given as 1.03. In addition, in data set [2], the antibacterial activity result was “-”. This compound also came in with a viability in data set [3] of 100%.
For the compound `CC(C)C[C@@H](NC(=O)[C@H](C)NC(=O)[C@H](NC(=O)[C@H](C)NC(=O)CNC(=O)[C@@H](NC=O)C(C)C)C(C)C)C(=O)N[C@H](C(=O)N[C@@H](C(=O)N[C@@H](Cc1c[nH]c2ccccc12)C(=O)N[C@H](CC(C)C)C(=O)N[C@@H](Cc1c[nH]c2ccccc12)C(=O)N[C@@H](C(=O)N[C@@H](Cc1c[nH]c2ccccc12)C(=O)N[C@H](CC(C)C)C(=O)N[C@@H](Cc1c[nH]c2ccccc12)C(=O)NCCO)C(C)C)[C@H](C)O)C(C)C` [compound 6842] (For-VGA[dV]A[dL]V[dT]W[dL]W[dV]W[dL]W-NHCH2CH2OH), the “H+/Na+ transport activity normalized” value in data set [1] came out at 1.14. In addition, the antibacterial activity result in data set [2] is given as “-”. In data set [3], the viability came out at 100%.
For `CC(C)C[C@@H](NC(=O)[C@H](C)NC(=O)CNC(=O)[C@@H](NC=O)C(C)C)C(=O)N[C@@H](C)C(=O)N[C@@H](C(=O)N[C@H](C(=O)N[C@@H](C(=O)N[C@@H](Cc1c[nH]c2ccccc12)C(=O)N[C@H](CC(C)C)C(=O)N[C@@H](Cc1c[nH]c2ccccc12)C(=O)N[C@H](CC(C)C)C(=O)N[C@@H](Cc1c[nH]c2ccccc12)C(=O)N[C@@H](C(=O)N[C@@H](Cc1c[nH]c2ccccc12)C(=O)NCCO)[C@H](C)O)C(C)C)C(C)C)[C@H](C)O` [compound 6873] (For-VGA[dL]A[dT]V[dV]W[dL]W[dL]W[dT]W-NHCH2CH2OH) the same measures were 1.15, “-” and 100%.
For the compound `CC(C)C[C@@H](NC(=O)[C@H](C)NC(=O)[C@H](NC(=O)[C@H](C)NC(=O)CNC(=O)[C@@H](NC=O)C(C)C)[C@H](C)O)C(=O)N[C@H](C(=O)N[C@@H](C(=O)N[C@@H](Cc1c[nH]c2ccccc12)C(=O)N[C@@H](C(=O)N[C@@H](Cc1c[nH]c2ccccc12)C(=O)N[C@H](CC(C)C)C(=O)N[C@@H](Cc1c[nH]c2ccccc12)C(=O)N[C@H](CC(C)C)C(=O)N[C@@H](Cc1c[nH]c2ccccc12)C(=O)NCCO)[C@H](C)O)C(C)C)C(C)C` [compound 6896] (For-VGA[dT]A[dL]V[dV]W[dT]W[dL]W[dL]W-NHCH2CH2OH), the “H+/Na+ transport activity normalized” value in data set [1] is on record as 1.18. Further, the antibacterial activity result in data set [2] is given as “-”. Also, the viability in data set [3] turned out to be 100%.
For `CC(C)C[C@@H](NC(=O)[C@H](C)NC(=O)[C@H](NC(=O)[C@H](C)NC(=O)CNC(=O)[C@@H](NC=O)C(C)C)C(C)C)C(=O)N[C@H](C(=O)N[C@H](CC(C)C)C(=O)N[C@@H](Cc1c[nH]c2ccccc12)C(=O)N[C@@H](C(=O)N[C@@H](Cc1c[nH]c2ccccc12)C(=O)N[C@@H](C(=O)N[C@@H](Cc1c[nH]c2ccccc12)C(=O)N[C@@H](C(=O)N[C@@H](Cc1c[nH]c2ccccc12)C(=O)NCCO)[C@H](C)O)C(C)C)C(C)C)C(C)C` [compound 6959] (For-VGA[dV]A[dL]V[dL]W[dV]W[dV]W[dT]W-NHCH2CH2OH) the same measures were 1.06, “+” and 100%.
Consider `CC(C)C[C@@H](NC(=O)[C@H](C)NC(=O)CNC(=O)[C@@H](NC=O)C(C)C)C(=O)N[C@@H](C)C(=O)N[C@@H](C(=O)N[C@H](C(=O)N[C@@H](C(=O)N[C@@H](Cc1c[nH]c2ccccc12)C(=O)N[C@H](CC(C)C)C(=O)N[C@@H](Cc1c[nH]c2ccccc12)C(=O)N[C@@H](C(=O)N[C@@H](Cc1c[nH]c2ccccc12)C(=O)N[C@@H](C(=O)N[C@@H](Cc1c[nH]c2ccccc12)C(=O)NCCO)[C@H](C)O)C(C)C)C(C)C)C(C)C)C(C)C` [compound 7010] (For-VGA[dL]A[dV]V[dV]W[dL]W[dV]W[dT]W-NHCH2CH2OH), for which the “H+/Na+ transport activity normalized” value in data set [1] is recorded as 1.07. Besides, the antibacterial activity result in data set [2] was “+”. In addition, the viability in data set [3] came out at 100%.

The values are drawn from PMC7531004, “Discovery of gramicidin A analogues with altered activities by multidimensional screening of a one-bead-one-compound library” (Nature Communications, 2020).
